Measurements published in patent publication US10294202B2, “Pyrrolidinones as herbicides” (FMC Corporation, priority 2013, dated 2019).

Key:
goosegrass = assay: Test C pre-/postemergence herbicide test; assay type: in vivo, Eleusine indica
Excerpt: (§1) Seeds of plant species selected from blackgrass (Alopecurus myosuroides), ryegrass, Italian (Italian ryegrass, Lolium multiflorum), wheat (winter wheat, Triticum aestivum), galium (catchweed bedstraw, Galium aparine), corn (Zea mays), crabgrass, large (large crabgrass, Digitaria sanguinalis), foxtail, giant (giant foxtail, Setaria faberii), johnsongrass (Sorghum halepense), lambsquarters (Chenopodium album), morningglory (Ipomoea coccinea), nutsedge, yellow (yellow nutsedge, Cyperus esculentus), pigweed (Amaranthus retroflexus), ragweed (common ragweed, Ambrosia elatior), soybean (Glycine max), barnyardgrass (Echinochloa crus-galli), oilseed rape (Brassica napus), waterhemp (common waterhemp, Amaranthus rudis), kochia (Kochia scoparia), oat, wild (wild oat, Avena fatua), surinam grass (Brachiaria decumbens), foxtail, green (green foxtail, Setaria viridis), goosegrass (Eleusine indica), bromegrass, downy (downy bromegrass, Bromus tectorum), nightshade (eastern black nightshade, Solanum ptycanthum), cocklebur (common cocklebur, Xanthium strumarium), cupgrass, woolly (woolly cupgrass, Eriochloa villosa), bermudagrass (Cynodon dactylon), sunflower, (common oilseed sunflower, Helianthus annuus), Russian thistle (Salsola kali) and velvetleaf (Abutilon theophrasti) were planted into a blend of loam soil and sand and treated preemergence with test chemicals formulated in a non-phytotoxic solvent mixture which included a surfactant. At the same time, plants selected from these crop and weed species and also barley (winter barley, Hordeum vulgare), […]), chickweed (common chickweed, Stellaria media), deadnettle (henbit deadnettle, Lamium amplexicaule), and canarygrass (littleseed canarygrass, Phalaris minor) were planted in pots containing Redi-Earth® planting medium (Scotts Company, 14111 Scottslawn Road, Marysville, Ohio 43041) comprising spaghnum peat moss, vermiculite, wetting agent and starter nutrients and treated with postemergence applications of test chemicals formulated in the same manner. Plants ranged in height from 2 to 18 cm (1- to 4-leaf stage) for postemergence treatments. Treated plants and controls were maintained in a greenhouse for 13 to 15 days, after which time all species were compared to controls and visually evaluated. Plant response ratings, summarized in Table C, are based on a scale of 0 to 100 where 0 is no effect and 100 is complete control. A dash (-) response means no test result.

bermudagrass = assay: Test C pre-/postemergence herbicide test; assay type: in vivo, Cynodon dactylon
Excerpt: as §1

[1] = Postemergence, 16 g ai/ha, scale 0 to 100 (0 no effect, 100 complete control)
[2] = Postemergence, 31 g ai/ha, scale 0 (no effect) to 100 (complete control)
[3] = Postemergence, 62 g ai/ha, scale 0 to 100 (0 no effect, 100 complete control)
[4] = Postemergence, 125 g ai/ha, scale 0 to 100 (0 no effect, 100 complete control)
[5] = Preemergence, 62 g ai/ha, scale 0 to 100
[6] = Preemergence, 125 g ai/ha, scale 0 to 100 (0 no effect, 100 complete control)
[7] = Preemergence, 16 g ai/ha, scale 0 to 100
[8] = Preemergence, 31 g ai/ha, scale 0 to 100 (0 no effect, 100 complete control)
[9] = Postemergence, 250 g ai/ha, scale 0 to 100 (0 no effect, 100 complete control)
[10] = Preemergence, 31 g ai/ha, scale 0 to 100, 0 is no effect and 100 is complete control

Compound	Plant response rating, Goosegrass (goosegrass; [2])	Plant response rating, Goosegrass (goosegrass; [3])	Plant response rating, Goosegrass (goosegrass; [4])	Plant response rating, Goosegrass (goosegrass; [5])	Plant response rating, Goosegrass (goosegrass; [6])	Goosegrass plant response rating (goosegrass; [8])	Plant response rating, Bermudagrass (bermudagrass; [2])	Plant response rating, Bermudagrass (bermudagrass; [3])	Plant response rating, Bermudagrass (bermudagrass; [4])	Plant response rating, Bermudagrass (bermudagrass; [5])	Plant response rating, Bermudagrass (bermudagrass; [6])	Bermudagrass plant response rating (bermudagrass; [8])	Plant response rating, Goosegrass (goosegrass; [9])	Plant response rating, Bermudagrass (bermudagrass; [9])	further results
O=C1NCC(c2cc(F)c(F)c(F)c2)C1C(=O)Nc1cccc(F)c1F (centres unmarked) [Compound 48]	10	10	10	10	15	0	0	0	10	0	0	0			Plant response rating, Goosegrass (goosegrass; [1]): 10; Plant response rating, Goosegrass (goosegrass; [7]): 0; Plant response rating, Bermudagrass (bermudagrass; [1]): 0; Plant response rating, Bermudagrass (bermudagrass; [7]): 0
O=C1NCC(c2cc(F)c(F)cc2F)C1C(=O)Nc1cccc(F)c1F (centres unmarked) [Compound 50]	25	25	25				0	0	0				25	0	
O=C1NCC(c2ccc(Cl)c(F)c2)C1C(=O)Nc1cccc(F)c1F (centres unmarked) [Compound 52]	0	0	20	20	60	10	0	0	0	40	40	0	20	10	Plant response rating, Bermudagrass (bermudagrass; Preemergence, 250 g ai/ha, scale 0 to 100 (0 no effect, 100 complete control)): 65
O=C1NCC(c2ccc(F)c(Cl)c2)C1C(=O)Nc1ccccc1F (centres unmarked) [Compound 60]	0	0	0	0	0	0	0	0	0	0	0	0			
O=C1NCC(c2cccc(OC(F)(F)F)c2)C1C(=O)Nc1ccccc1F (centres unmarked) [Compound 69]				40	40					35	50				Goosegrass plant response rating (goosegrass; [10]): 20; Plant response rating (scale of 0 to 100), Goosegrass (goosegrass; Preemergence, 250 g ai/ha): 75; Bermudagrass plant response rating (bermudagrass; [10]): 35; Plant response rating (scale of 0 to 100), Bermudagrass (bermudagrass; Preemergence, 250 g ai/ha): 55
